# In patent US20200055839A1 (priority 2017, published 2020):
# pEC50: −log10 of the molar value.
# System: NL-RLuc virus
# Test: Inhibition of HIV replication (NL-RLuc virus, luciferase readout in MT-2 cells)
# Assay type: cell-based
# Details: Human immunodeficiency virus 1, MT2, 120 h, MT-2 cells infected with NL-RLuc virus, 5 days of incubation, 10% FBS, at least 2 experiments
# How it was run: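 MT-2 cells infected with NL4-3-derived virus carrying Renilla luciferase in place of part of nef, grown 5 days with serial compound dilutions in RPMI 1640/10% FBS. Virus growth read as luciferase expression. EC50 from median effect equation, at least 2 experiments.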
row,SMILES,pEC50
1,"Cc1ncc(-c2ccc(C(F)(F)F)c(F)c2F)c(N2CCC(C)(C)CC2)c1[C@H](OC(C)(C)C)C(=O)O [Example 172, (2S)-2-(tert-Butoxy)-2-{5-[2,3-difluoro-4-(trifluoromethyl)phenyl]-4-(4,4-dimethylpiperidin-1-yl)-2-methylpyridin-3-yl}acetic acid]",7.85
2,"Cc1nc(Nc2ccnc(C(=O)O)c2)c(-c2ccc(OCCc3ccc(F)cc3)cc2)c(N2CCC(C)(C)CC2)c1[C@H](OC(C)(C)C)C(=O)O [Example 102, (S)-4-((5-(tert-Butoxy(carboxy)methyl)-4-(4,4-dimethylpiperidin-1-yl)-3-(4-(4-fluorophenethoxy)phenyl)-6-methylpyridin-2-yl)amino)picolinic acid]",7.30
3,"Cc1ncc(-c2ccc(C(F)(F)CC(C)C)cn2)c(N2CCC(C)(C)CC2)c1[C@H](OC(C)(C)C)C(=O)O [Example 274, (S)-2-(tert-Butoxy)-2-(5-(1,1-difluoro-3-methylbutyl)-4′-(4,4-dimethylpiperidin-1-yl)-6′-methyl-[2, 3′-bipyridin]-5′-yl)acetic acid]",7.80
4,"CNc1nc(C)c([C@H](OC(C)(C)C)C(=O)O)c(N2CCC(C)(C)CC2)c1-c1ccc(OCCc2ccc(F)cc2)c(F)c1 [Example 108, (S)-2-(tert-Butoxy)-2-(4-(4,4-dimethylpiperidin-1-yl)-5-(3-fluoro-4-(4-fluorophenethoxy)phenyl)-2-methyl-6-(methylamino)pyridin-3-yl)acetic acid]",8.52
5,"COc1cccc(CCOc2ccc(-c3cnc(C)c([C@H](OC(C)(C)C)C(=O)O)c3N3CCC(C)(C)CC3)nc2)c1 [Example 301, (2S)-2-(tert-butoxy)-2-[4′-(4,4-dimethylpiperidin-1-yl)-5-[2-(3-methoxyphenyl)ethoxy]-6′-methyl-[2,3′-bipyridine]-5′-yl]acetic acid]",9.00
6,"COc1ccccc1COc1ccc(-c2cnc(C)c([C@H](OC(C)(C)C)C(=O)O)c2N2CCC(C)(C)CC2)nc1 [Example 357, (2S)-2-(tert-butoxy)-2-[4′-(4,4-dimethylpiperidin-1-yl)-5-[(2-methoxyphenyl)methoxy]-6′-methyl-[2,3′-bipyridine]-5′-yl]acetic acid]",9.10
7,"CC1(C)CCN(c2c(-c3ccc(OCCc4ccc(F)cc4)cc3)cnc(N3CCCC3)c2[C@H](OC(C)(C)C)C(=O)O)CC1 [Example 202, (S)-2-(tert-Butoxy)-2-(4-(4,4-dimethylpiperidin-1-yl)-5-(4-(4-fluorophenethoxy)phenyl)-2-(pyrrolidin-1-yl)pyridin-3-yl)acetic acid]",7.12
8,"Cc1ccc(-c2cnc(C)c([C@H](OC(C)(C)C)C(=O)O)c2N2CCC(C)(C)CC2)nc1 [Example 185, (2S)-2-(tert-Butoxy)-2-[4′-(4,4-dimethylpiperidin-1-yl)-5,6′-dimethyl-[2, 3′-bipyridine]-5′-yl]acetic acid]",7.96
9,"Cc1ncc(-c2ccc([C@@H](O)CC(C)C)nc2)c(N2CCC(C)(C)CC2)c1[C@H](OC(C)(C)C)C(=O)O [Example 432, (S)-2-tert-Butoxy-2-(4-(4,4-dimethylpiperidin-1-yl)-6′-((S)-1-hydroxy-3-methylbutyl)-6-methyl-3, 3′-bipyridin-5-yl)acetic acid]",7.49
10,"Cc1ncc(-c2cnc(OCCc3ccc(F)cc3)c(F)c2)c(N2CCC(C)(C)CC2)c1[C@H](OC(C)(C)C)C(=O)O [Example 118, (S)-2-(tert-Butoxy)-2-(4-(4,4-dimethylpiperidin-1-yl)-5′-fluoro-6′-(4-fluorophenethoxy)-6-methyl-[3, 3′-bipyridin]-5-yl)acetic acid]",9.00
11,"Cc1cc(-c2cnc(C)c([C@H](OC(C)(C)C)C(=O)O)c2N2CCC(C)(C)CC2)cnc1OCC(C)C [Example 428, (S)-2-tert-Butoxy-2-(4-(4,4-dimethylpiperidin-1-yl)-6′-isobutoxy-5′,6-dimethyl-3, 3′-bipyridin-5-yl)acetic acid]",8.15
12,"Cc1ccnc(Nc2nc(C)c([C@H](OC(C)(C)C)C(=O)O)c(N3CCC(C)(C)CC3)c2-c2ccc(OCCc3ccc(F)cc3)cc2)c1 [Example 79, (S)-2-(tert-Butoxy)-2-(4-(4,4-dimethylpiperidin-1-yl)-5-(4-(4-fluorophenethoxy)phenyl)-2-methyl-6-((4-methylpyridin-2-yl)amino)pyridin-3-yl)acetic acid]",8.22
13,"Cc1ncc(-c2ccc(OCc3ccc(F)cc3)cn2)c(N2CCC(C)(C)CC2)c1[C@H](OC(C)(C)C)C(=O)O [Example 344, (2S)-2-(tert-butoxy)-2-[4′-(4,4-dimethylpiperidin-1-yl)-5-[(4-fluorophenyl)methoxy]-6′-methyl-[2,3′-bipyridine]-5′-yl]acetic acid]",8.70
14,"Cc1nc(-c2ccn(C)n2)c(-c2ccc(OCCc3ccc(F)cc3)cc2)c(N2CCC(C)(C)CC2)c1[C@H](OC(C)(C)C)C(=O)O [Example 46, (S)-2-(tert-Butoxy)-2-(4-(4,4-dimethylpiperidin-1-yl)-5-(4-(4-fluorophenethoxy)phenyl)-2-methyl-6-(1-methyl-1H-pyrazol-3-yl)pyridin-3-yl)acetic acid]",8.40
15,"Cc1ncc(-c2cnc(OCCCc3ccccc3)c(F)c2)c(N2CCC(C)(C)CC2)c1[C@H](OC(C)(C)C)C(=O)O [Example 406, (2S)-2-(tert-butoxy)-2-[4-(4,4-dimethylpiperidin-1-yl)-5′-fluoro-6-methyl-6′-(3-phenylpropoxy)-[3,3′-bipyridine]-5-yl]acetic acid]",8.40
16,"Cc1nc(NCCCN(C)C)c(-c2ccc(OCCc3ccc(F)cc3)cc2)c(N2CCC(C)(C)CC2)c1[C@H](OC(C)(C)C)C(=O)O [Example 40, (S)-2-(tert-Butoxy)-2-(6-((3-(dimethylamino)propyl)amino)-4-(4,4-dimethylpiperidin-1-yl)-5-(4-(4-fluorophenethoxy)phenyl)-2-methylpyridin-3-yl)acetic acid]",8.70
17,"Cc1cc(C)n(-c2nc(C)c([C@H](OC(C)(C)C)C(=O)O)c(N3CCC(C)(C)CC3)c2-c2ccc(OCCc3ccc(F)cc3)cc2)n1 [Example 59, (S)-2-(tert-Butoxy)-2-(6-(3,5-dimethyl-1H-pyrazol-1-yl)-4-(4,4-dimethylpiperidin-1-yl)-5-(4-(4-fluorophenethoxy)phenyl)-2-methylpyridin-3-yl)acetic acid]",8.52
18,"Cc1nc(N)c(-c2cc(F)c(OCCc3ccc(F)cc3)c(F)c2)c(N2CCC(C)(C)CC2)c1[C@H](OC(C)(C)C)C(=O)O [Example 60, (S)-2-(6-Amino-5-(3,5-difluoro-4-(4-fluorophenethoxy)phenyl)-4-(4,4-dimethylpiperidin-1-yl)-2-methylpyridin-3-yl)-2-(tert-butoxy)acetic acid]",7.60
19,"Cc1cn(-c2nc(C)c([C@H](OC(C)(C)C)C(=O)O)c(N3CCC(C)(C)CC3)c2-c2ccc(OCCc3ccc(F)cc3)cc2)c(C)n1 [Example 53, (S)-2-(tert-Butoxy)-2-(6-(2,4-dimethyl-1H-imidazol-1-yl)-4-(4,4-dimethylpiperidin-1-yl)-5-(4-(4-fluorophenethoxy)phenyl)-2-methylpyridin-3-yl)acetic acid]",8.52
20,"Cc1ncc(-c2ccc(OCCC(C)(C)C)cn2)c(N2CCC(C)(C)CC2)c1[C@H](OC(C)(C)C)C(=O)O [Example 316, (2S)-2-(tert-butoxy)-2-[5-(3,3-dimethylbutoxy)-4′-(4,4-dimethylpiperidin-1-yl)-6′-methyl-[2,3′-bipyridine]-5′-yl]acetic acid]",8.70
21,"Cc1ncc(-c2ccc(OCC(C)C)nc2)c(N2CCC(C)(C)CC2)c1C(OC(C)(C)C)C(=O)O (stereo in doubt) [Example 409, (S)-2-(tert-butoxy)-2-(4-(4,4-dimethylpiperidin-1-yl)-6′-isobutoxy-6-methyl-[3,3′-bipyridin]-5-yl)acetic acid]",9.00
22,"Cc1ncc(-c2ccc(C(F)CC(C)C)nc2)c(N2CCC(C)(C)CC2)c1[C@H](OC(C)(C)C)C(=O)O (stereo partly drawn) [Example 411, (2S)-2-(tert-Butoxy)-2-(4-(4,4-dimethylpiperidin-1-yl)-6′-(1-fluoro-3-methylbutyl)-6-methyl-[3, 3′-bipyridin]-5-yl)acetic acid]",7.70
23,"Cc1ncc(-c2ccc(OCc3ncnc4c3oc3ccccc34)cc2)c(N2CCC(C)(C)CC2)c1[C@H](OC(C)(C)C)C(=O)O [Example 19, (2S)-2-(tert-Butoxy)-2-[4-(4,4-dimethylpiperidin-1-yl)-2-methyl-5-[4-({8-oxa-3,5-diazatricyclo[7.4.0.0^2,7]trideca-1(9), 2(7), 3,5,10,12-hexaen-6-yl}methoxy)phenyl]pyridin-3-yl]acetic acid]",8.40
24,"Cc1nc(C#N)c(-c2ccc(CN(C)c3ncnc4c3oc3ccccc34)cc2)c(N2CCC(C)(C)CC2)c1[C@H](OC(C)(C)C)C(=O)O [Example 22, (2S)-2-(tert-Butoxy)-2-[6-cyano-4-(4,4-dimethylpiperidin-1-yl)-2-methyl-5-(4-{[methyl({8-oxa-3,5-diazatricyclo[7.4.0.0^2,7]trideca-1 (9), 2(7), 3,5,10, 12-hexaen-6-yl})amino]methyl}phenyl)pyridin-3-yl]acetic acid]",8.52
25,"Cc1ncc(-c2ccc(OCCc3ccc(F)cc3)c(F)c2)c(N2CCC(C)(C)CC2)c1[C@H](OC(C)(C)C)C(=O)O [Example 122, (S)-2-(tert-Butoxy)-2-(4-(4,4-dimethylpiperidin-1-yl)-5-(3-fluoro-4-(4-fluorophenethoxy)phenyl)-2-methylpyridin-3-yl)acetic acid]",9.00
26,"Cc1nc(C#N)c([C@H](OC(C)(C)C)C(=O)O)c(N2CCC(C)(C)CC2)c1-c1ccc(OCCc2ccc(F)cc2)cc1 [Example 5, (S)-2-(tert-Butoxy)-2-(2-cyano-4-(4,4-dimethylpiperidin-1-yl)-5-(4-(4-fluorophenethoxy)phenyl)-6-methylpyridin-3-yl)acetic acid]",8.15

# Same assay, conditions: MT-2 cells infected with NL-RLuc virus, 5 days of incubation, 10% FBS, at least 2 experiments
row,SMILES,pEC50
1,"Cc1nc(C(C)O)c(-c2ccc(OCCc3ccc(F)cc3)c(F)c2)c(N2CCC(C)(C)CC2)c1[C@H](OC(C)(C)C)C(=O)O (single isomer, unassigned) [Example 237]",8.52
